These results are taken from PMC6606642, “Inhibition of Cathepsin S Reduces Lacrimal Gland Inflammation and Increases Tear Flow in a Mouse Model of Sjögren’s Syndrome” (Scientific Reports, 2019).

This assay deals with Cathepsin S (human recombinant CTSS) (Homo sapiens, UniProt P25774). Nature of the assay: fluorescence CTSS activity assay kit with recombinant enzyme. Type of assay: biochemical.

Each structure is given as a SMILES string.

Sequence of Cathepsin S (human recombinant CTSS) (P25774 115-331): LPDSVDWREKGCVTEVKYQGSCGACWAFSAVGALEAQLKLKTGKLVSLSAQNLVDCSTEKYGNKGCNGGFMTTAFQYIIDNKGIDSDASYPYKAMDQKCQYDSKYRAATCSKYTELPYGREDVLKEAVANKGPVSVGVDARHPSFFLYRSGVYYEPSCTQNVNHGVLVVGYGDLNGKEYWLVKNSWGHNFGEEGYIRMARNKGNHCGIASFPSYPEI

As for `CC(C)C[C@H](NC(=O)[C@H](Cc1ccccc1)NC(=O)OCc1ccccc1)C(=O)C=O` [Z-FL, Z-FL-COCHO], the IC50 was 0.172 ± 0.0327 µM.

`CC(C)C[C@H](NC(=O)[C@H](Cc1ccccc1)NC(=O)OCc1ccccc1)C(=O)C=O` [Z-FL-hydrate, Z-FL-COCHO-hydrate]: the IC50 worked out at 0.262 ± 0.0593 µM.
